Laboratory results from patent US20230038138A1, “COMBINATION THERAPY FOR TREATING CANCER” (ASTRAZENECA AB, priority 2020, published 2023).

Test system: NIH-OVCAR3 human ovarian tumor cells
Assay: Efficacy in OVCAR3 xenograft model (tumor volume)
Type: in vivo, female CB.17 SCID mice
Settings: dosed for 42 days
Text: OVCAR3: NIH-OVCAR3 human ovarian tumor cells (15×10^6/mouse) were implanted subcutaneously in female CB.17 SCID mice. The mice were randomized into groups of eight for efficacy, based on tumor volume and treated with either vehicle (0.5% HPMC/0.1% Tween 80), AZD5153; olaparib or the combination of AZD5153 and olaparib approximately 10 days after implantation. AZD5153 was formulated in 0.5% HPMC/0.1% Tween 80 and dosed orally for 42 days. Olaparib was formulated in 50% of 30% w/v HP-β-CD (Kleptose) in purified water and also dosed for 42 days. For the combination groups, olaparib was dosed daily for 42 days and AZD5153 was dosed either daily, for 7 days on and 14 days off for 2 cycles or 14 days on and 7 days off for 2 cycles. Tumor length and width was measured by caliper and tumor volume was calculated using the formula (length×width^2)*π/6 then reported as tumor volume.

Structure (SMILES)	efficacy (tumor volume) as monotherapy
O=C(c1cc(Cc2n[nH]c(=O)c3ccccc23)ccc1F)N1CCN(C(=O)C2CC2)CC1 [olaparib, 4-[(3-{[4-(cyclopropylcarbonyl)piperazin-1-yl]carbonyl}-4-fluorophenyl)methyl]phthalazin-1(2H)-one]	modestly efficacious
COc1nnc2ccc(N3CCC(c4ccc(OCCN5CCN(C)C(=O)[C@H]5C)cc4)CC3)nn12 [AZD5153, (3R)-4-[2-[4-[1-(3-Methoxy-[1,2,4]triazolo[4,3-b]pyridazin-6-yl)-4-piperidyl]phenoxy]ethyl]-1,3-dimethyl-piperazin-2-one]	modestly efficacious
